Source: US7223836B2, “Peptides for chlamydophila pneumoniae vaccine and diagnosis” (The United States of America as represented by the …, priority 2001, dated 2007)
No end group written: not given here.

Columns and labels:
8A6 mAb = experiment: competitive inhibition ELISA: peptide blocks 8A6 mAb binding to sonicated C. pneumoniae; design: species or system murine
Description: To perform these experiments, an ELISA was utilized in which mAb and inhibitor (phage) were premixed, incubated for 2 hours, and then plated onto the microtiter plates with renographin purified, sonicated whole-cell C. pneumoniae.
Several methods were used to determine binding specificity. […] The best synthetic peptides were selected by competing the peptide against the respective native C. pneumoniae lysate for binding to the target mAb.

[1] = immunization of naive mice, antiserum ELISA; type: in vivo; settings: intraperitoneal, 50–200 μg with aluminum hydroxide, boosters
Description: (§1) In order to identify immunologically reactive C. pneumoniae peptides that can be used in the development of a C. pneumoniae vaccine, naive mice and rabbits were immunized with various C. pneumoniae polypeptides. An exemplary protocol is as follows: 50–200 μg of CP-8A6-B1 (SEQ ID NO:4) was mixed with 1 mg of aluminum hydroxide, a less inflammatory alternative to Freund's adjuvant. Rabbits were injected subcutaneously at multiple sites with 0.05 ml of inoculum, whereas mice were immunized intraperitoneally with no more than 0.2 ml of inoculum. At least 2–3 weeks following the initial immunization, the mice and rabbits were given their first booster immunizations. Mice were given subsequent boosters at two week intervals for up to 6 total injections, whereas rabbits were typically injected every 4–6 weeks. […] Briefly, after the antigen was immobilized, the bound peptide was tested with serial dilutions of the mouse and rabbit antisera and was detected with a goat anti-mouse IgG or a goat anti-rabbit IgG heavy plus light chain antibody horseradish peroxidase conjugate (Pierce Scientific). […] Absorbance at 490 nm was recorded with an enzyme immunoassay reader (Bio-Tek Instruments, Burlington, Vt.). […] Wells with optical density readings greater than 0.2 units at 490 nm were indicative of an immunologically reactive antiserum.

[2] = immunization of naive rabbits, antiserum ELISA; type: in vivo; settings: subcutaneous, 50–200 μg with aluminum hydroxide, boosters
Description: as §1

[3] = test system: 8A6 mAb binding to fixed, cultured C. pneumoniae cells (RBs and EBs); experiment: competitive inhibition indirect IFA; design: species or system murine; settings: serially diluted peptide
Description: The indirect immunofluorescence assay (IFA) was performed as described previously (Storey et al., 1993 and Wong Skelton Chan, 1992) with modifications. Antibiotic-free Buffalo African Green monkey cells were seeded into 1 dram shell vials or 24-well tissue culture trays containing 12 mm cover slips at a density of 3.0×10^5 cells/mL. Cells were incubated for 24 hours at 37° C. and checked for confluency. Cell cultures were infected by the addition of C. pneumoniae followed by centrifugation at 3000× g. Inclusions were counted using the Pathfinder® Chlamydia Culture Confirmation System staining kit (Sanofi Diagnostics Pasteur, Redmond, Wash.) as per manufacturer specifications. The 8A6 mAb was used as previously described (Wong et al. 1992) for detection of C. pneumoniae inclusions and to determine species specificity.
A competitive inhibition IFA assay was performed using the previously described IFA assay with modification. […]
Due to the subjective nature of IFA tests, it is difficult to standardize a competitive inhibition to obtain fluorescence measures. Instead, slides were scored from 1 to 4 such that a value of 3+ equals the endpoint titer and changes due to inhibition were scored empirically from comparison with control slides. […]

[4] = competitive inhibition ELISA, binding of 8A6 mAb to sonicated C. pneumoniae fixed to solid phase

| Sequence | IC50 (50% Inhibiting Concentration) (8A6 mAb; [4]) [µg/mL] | percent inhibition (8A6 mAb; [4]) [%] | immune response (antiserum reactivity by ELISA) [1] | percent inhibition (8A6 mAb; at 50 μg/mL of peptide) [%] | immune response (antiserum reactivity by ELISA) [2] | peptide concentration down to which any observable binding of 8A6 mAb was completely blocked [3] [ng/mL] |
| --- | --- | --- | --- | --- | --- | --- |
| RRLGRQTYDNES [CP-8A6-A1, RRLGRQTYDNES] | 4.82 | 84.5 |  |  |  |  |
| HDEGRQIIQFEE [CP-8A6-A2, HDEGRQIIQFEE] | 18.29 | 83.5 |  |  |  |  |
| AFAQAPTHQLSL [CP-8A6-B3, AFAQAPTHQLSL] | 6.46 | 67.8 |  |  |  |  |
| ESNPVDGAHLSL [CP-8A6-B10A, ESNPVDGAHLSL] | 18.90 | 57.4 |  |  |  |  |
| PNEPDDLALMRIIRI [CP-8A6-B1, PNEPDDLALMRIIRI] | 2.93 | 95.44 | produced an immune response | 95.44 | produced an immune response | 100 |
| LRNCEQDFFTLN [CP-8A6-A3, LRNCEQDFFTLN] | 18.54 | 95.1 |  |  |  |  |
